From patent US7838542B2, “Bicyclic compositions and methods for modulating a kinase cascade” (Kinex Pharmaceuticals, LLC, priority 2006, dated 2010)
“Also recorded” adds a separate entry of the source. Each block holds one compound with its values, some of them ahead of it. Numbered stars: 1 amine (or outer) side, 2 acyl side, 3 side chain; on linkers, the order of the positions; unused ones are H or OH. Square brackets hold non-standard residues; d marks the D form. Peptide text beside a SMILES is read from it. X2 = O=C([C@H](CNS(=O)(=O)O)N[*:1])[*:2]; X3 = O=C([C@H](CB(O)O)N[*:1])[*:2]

Experiments:
[1] = biological target: pp60^c-src (Homo sapiens, UniProt P12931); test: Src inhibition (RR-SRC phosphorylation), Cellular Mimetic assay; settings: for % Inhibition of 2 mM RR-src at Inhibitor Concentration (1 mM): inhibitor 1 mM; for % Inhibition of 2 mM RR-src at Inhibitor Concentration (100 μM): inhibitor 100 μM; for mode of inhibition with respect to ATP: IC50 or % inhibition monitored at ATP increased up to 1 mM
[2] = tested on: normal rat kidney (NRK) cells; test: NRK non-transformed cell growth; assay type: cell-based
Method: (§1) Active Src inhibitors can be studied in a set of side-by-side cell-based assays using normal rat kidney (NRK) cells and a temperature-sensitive pp60^v-Src transformant of this cell line (LA25). The LA25 transformant engages in anchorage- and serum-independent growth at the “permissive” temperature of 33° C. due to activation of pp60^v-src but not at the “non-permissive” temperature of 40° C. at which pp60^v-src is not activated (Li et al., 1996). The use of this pair of closely related cell lines for testing the Src inhibitors at both the permissive and non-permissive temperatures allows one to determine if a given Src inhibitor is blocking cell growth due to specific blockade of the Src signaling pathway, by a different mechanism or by a general cytotoxic effect.
(§2) As shown in this graph the growth of the LA25 cells at the permissive temperature of 33° C. is inhibited by ca. 50% at a 25 μM concentration of 43-meta relative to the LA25 cell growth at the non-permissive 40° C. as a control. […] Since the 43-meta solutions were prepared with a low concentration of DMSO for solubilization, a DMSO control was also run at the same concentration.

[3] = tested on: LA25 cells (temperature-sensitive pp60^v-Src transformant of NRK); test: LA25 cell growth at permissive and non-permissive temperature; assay type: cell-based, rat
Method: as §1, §2

[4] = tested on: SCID mice; settings: mouse, in vivo, ip
[5] = biological target: T1, PKA (Homo sapiens, UniProt P17612); test: STAIRe method: form of the protein kinase the inhibitor binds best to; assay type: biochemical
From the text: This was a somewhat surprising result since these inhibitors are analogs of the “end product inhibitors” 1 and 12 which must bind simultaneously with MgADP just following phosphate transfer in the generally accepted reaction mechanism for protein kinases.

[6] = biological target: T1, PKA; test: PKA inhibition, Literature Mimetic assay; assay type: biochemical; settings: Literature Mimetic assay conditions
From the text: (§3) The boronic acid inhibitors 21-24 have two Arg's in their sequence also and therefore will bind to the phosphocellulose paper in addition to Kemptamide (although not as consistently or completely due to one less positive charge). Consequently, when analyzed as inhibitors, the amount of phosphorylated Kemptamide produced was not only counted, but also the amount of phosphorylated inhibitor simultaneously produced (e.g. see 26 below). The net result is that distorted IC50 curves are obtained which show net “stimulation” at higher inhibitor concentrations in some cases. […] The underlying substrate behavior of these “inhibitors” makes an accurate measurement of their inhibition potency impossible with the current assay. However, it does appear from the data that homologating the boronic acid functionality out with only CH2 groups (homologations with boronic acid non-peptide Src inhibitors may also be carried out) decreases the binding affinity and ability to function as a substrate.

[7] = biological target: T1, PKA; test: PKA inhibition, Cellular Mimetic assay; assay type: biochemical; settings: Cellular Mimetic assay conditions
From the text: as §3

[8] = tested on: DU-145; test: NIH 60-tumor cell panel assay, DU-145; assay type: cell-based; settings: read-out: growth inhibition IC50, DU-145
[9] = tested on: PC-3; test: NIH 60-tumor cell panel assay, PC-3; assay type: cell-based; settings: read-out: growth inhibition IC50, PC-3
From the text: The initial non-peptide Src inhibitors have also shown very encouraging results in four different series of cell culture assays. 1) In the NIH 60-tumor cell panel assay, broad activity (as one would expect for a Src inhibitor) was seen against the tumor cell lines, including the prostate lines. […] 3) The Src inhibitors were compared to the cancer drugs etoposide, taxol, doxorubicin and cisplatin in ovarian tumors from three different patients and an abdominal carcinoma from another patient. […] 5) Two of the Src inhibitors were also tested for inhibition of ts v-Src stimulated LA25 cell growth. […] 6) Two of the Src inhibitors were also tested for inhibition of normal rat kidney cell growth.

pp60^c-src, sequence (P12931 whole entry): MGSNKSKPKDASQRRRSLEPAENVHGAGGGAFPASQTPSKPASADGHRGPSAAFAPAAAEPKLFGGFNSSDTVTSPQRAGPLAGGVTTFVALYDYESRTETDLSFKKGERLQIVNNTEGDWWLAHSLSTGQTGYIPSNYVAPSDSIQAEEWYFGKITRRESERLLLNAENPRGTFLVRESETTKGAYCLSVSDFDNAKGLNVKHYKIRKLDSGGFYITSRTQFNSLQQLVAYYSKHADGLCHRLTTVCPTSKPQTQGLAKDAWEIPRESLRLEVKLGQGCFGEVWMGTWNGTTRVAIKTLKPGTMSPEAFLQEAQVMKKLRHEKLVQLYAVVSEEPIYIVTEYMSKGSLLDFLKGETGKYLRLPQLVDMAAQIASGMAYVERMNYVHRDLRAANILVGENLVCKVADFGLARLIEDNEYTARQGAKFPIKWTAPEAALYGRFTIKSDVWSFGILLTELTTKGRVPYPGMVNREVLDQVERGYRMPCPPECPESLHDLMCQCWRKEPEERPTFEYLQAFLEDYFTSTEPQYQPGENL

SMILES: O=S(=O)(O)c1ccc2ccccc2c1 [Compound 29]
% Inhibition of 2 mM RR-src at Inhibitor Concentration (1 mM) ([1]; Table IV): 0 (1 mM) %

SMILES: OB(O)c1ccc2ccccc2c1 [Compound 27, 2-naphthalene boronic acid]
mode of inhibition with respect to ATP [1]: not ATP-competitive inhibitors; also recorded: NON-ATP COMPETITIVE

SMILES: O=C(Nc1cccc(O)c1)c1cc2cccc(O)c2cc1O [Compound 45]
normal growth of the parent non-transformed cells [2]: without inhibiting the normal growth of the parent non-transformed cells
v-Src induced (Src stimulated) LA25 cell growth [3]: specifically blocked the v-Src induced cell growth

SMILES: O=C(Nc1cccc(O)c1)c1cc2ccc(O)cc2cc1O [Compound 43-meta]
normal growth of the parent non-transformed cells [2]: without inhibiting the normal growth of the parent non-transformed cells
cell toxicity ([2]; up to 400 μM, NRK cells, LA25 cells at 40° C. and at 33° C.): lack of cell toxicity
v-Src induced (Src stimulated) LA25 cell growth [3]: specifically blocked the v-Src induced cell growth
inhibition at 25 µM ([3]; Rattus norvegicus, read-out: inhibition of growth of LA25 cells at the permissive temperature of 33° C., 25 μM, relative to LA25 growth at non-permissive 40° C.): ~50%

SMILES: O=C(NCc1cccc(O)c1)c1cc2cc(F)ccc2[nH]1 [Compound 1a]
toxicity in MTD study (weight loss) [4]: less toxic in mice than compound 2k

SMILES: O=P(O)(O)c1cccc2ccccc12 [Compound 33]
% Inhibition of 2 mM RR-src at Inhibitor Concentration (1 mM) ([1]; Table IV): 1 (1 mM) %

SMILES: CC[C@H](C)[C@H](NC(=O)[C@H](CNS(=O)(=O)O)NC(=O)CNC(=O)[C@H](CCCNC(=N)N)NC(=O)[C@H](CCCNC(=N)N)NC(C)=O)C(N)=O [Compound 8] (Ac-RRG[X2]I-NH2)
nucleotide form of the kinase bound best (STAIRe) [5]: bind best when MgATP (not MgADP or no nucleotide) is also bound
times tighter binding than end product phosphate inhibitor 1 [6]: 31 ×
times tighter binding than end product phosphate inhibitor 1 [7]: 108 ×

SMILES: O=C(NCc1cccc(O)c1)c1cc2cc(O)ccc2[nH]1 [Compound 49-meta]
IC50 [8]: > 100 µM
IC50 [9]: 39 µM

Now from value to compound, other results behind:

% Inhibition of 2 mM RR-src at Inhibitor Concentration (100 μM) ([1]; Table IV): 0 (100 μM) %
SMILES: OB(O)c1cccc2ccccc12 [Compound 32]

% Inhibition of 2 mM RR-src at Inhibitor Concentration (100 μM) ([1]; Table IV): 10 (100 μM) %
SMILES: OB(O)c1cc2ccccc2o1 [Compound 35]

% Inhibition of 2 mM RR-src at Inhibitor Concentration (100 μM) ([1]; Table IV): 0 (100 μM) %
SMILES: NS(=O)(=O)c1ccc2ccccc2c1 [Compound 31]

melting point: 239 to 241 °C
SMILES: O=C(NCc1cccc(F)c1)c1cc2cc(F)ccc2[nH]1 [Compound 1z]

% Inhibition of 2 mM RR-src at Inhibitor Concentration (100 μM) ([1]; Table IV): 0 (100 μM) %
SMILES: NS(=O)(=O)c1cccc2ccccc12 [Compound 34]

IC50 ([1]; Table IV): 1600 µM
Ki ([1]; Table IV): 963 µM
% Inhibition of 2 mM RR-src at Inhibitor Concentration (1 mM) ([1]; Table IV): 31%
SMILES: O=S(=O)(O)Nc1ccc2ccccc2c1 [Compound 28]
mode of inhibition with respect to ATP [1]: not ATP-competitive inhibitors; also recorded: NON-ATP COMPETITIVE

IC50 ([1]; Table X): 16 µM
SMILES: O=C(Nc1cccc(O)c1)c1cc2ccc(O)cc2cc1O [Compound 3]

% Inhibition of 2 mM RR-src at Inhibitor Concentration (100 μM) ([1]; Table IV): 12 (100 μM) %
SMILES: OB(O)c1cc2ccccc2s1 [Compound 36]

inhibition at 100 µM ([1]; read-out: % Inhibition at 100 μM (std. dev.), inhibitor 100 μM, Table IX): 14%
SMILES: CC[C@H](C)[C@H](NC(=O)[C@H](CB(O)O)NC(=O)CNC(=O)[C@H](CCCNC(=N)N)NC(=O)[C@H](CCCNC(=N)N)NC(C)=O)C(N)=O [Compound 21] (Ac-RRG[X3]I-NH2)
